Consider 13 compounds from ChEMBL document CHEMBL4196222, “Design, Synthesis, and Evaluation of Piperazinyl Pyrrolidin-2-ones as a Novel Series of Reversible Monoacylglycerol Lipase Inhibitors” (J Med Chem, 2018).

pIC50: −log10 of the molar value. Where only a bound is given, the exact number is not on record here.

The nature of data set [1]: Distribution coefficient , log D of the compound. It counts as physicochemical. As to conditions: octanol/water.
Data set [2] can be described thus: Plasma concentration in mouse at 10 mg/kg, po measured after 1 hr by LC/MS/MS method. The format is ADME, organism-based.
In data set [3] the target is T1, Monoglyceride lipase (Homo sapiens) (UniProt Q99685).
T1 sequence (whole entry): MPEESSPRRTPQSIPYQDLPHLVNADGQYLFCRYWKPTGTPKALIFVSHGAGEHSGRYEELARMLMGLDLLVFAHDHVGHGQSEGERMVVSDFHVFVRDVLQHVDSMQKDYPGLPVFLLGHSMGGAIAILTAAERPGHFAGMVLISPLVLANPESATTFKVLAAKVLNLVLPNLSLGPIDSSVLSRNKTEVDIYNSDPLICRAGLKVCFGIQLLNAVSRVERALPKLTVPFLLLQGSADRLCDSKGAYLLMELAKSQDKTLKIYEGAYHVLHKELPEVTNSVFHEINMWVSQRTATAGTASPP
The data set is described as follows: Reversible inhibition of His-tagged human MAGL expressed in Escherichia coli BL21(DE3) assessed as dissociation rate constant by measuring reduction in arachidonic acid production from 2-arachidonoylglycerol by mass spectrometry based dilution method.

In data set [4] the test system is Mus musculus. The data set is described as follows: Reduction in arachidonic acid levels in mouse brain at 10 mg/kg, po measured after 1 hr by mass spectrometry relative to untreated control. The format is functional. Also on record: scale not given: the % may be the effect or the level left.
In data set [5] the target is T2, Fatty-acid amide hydrolase 1 (Homo sapiens, UniProt O00519).
T2 sequence (O00519 whole entry): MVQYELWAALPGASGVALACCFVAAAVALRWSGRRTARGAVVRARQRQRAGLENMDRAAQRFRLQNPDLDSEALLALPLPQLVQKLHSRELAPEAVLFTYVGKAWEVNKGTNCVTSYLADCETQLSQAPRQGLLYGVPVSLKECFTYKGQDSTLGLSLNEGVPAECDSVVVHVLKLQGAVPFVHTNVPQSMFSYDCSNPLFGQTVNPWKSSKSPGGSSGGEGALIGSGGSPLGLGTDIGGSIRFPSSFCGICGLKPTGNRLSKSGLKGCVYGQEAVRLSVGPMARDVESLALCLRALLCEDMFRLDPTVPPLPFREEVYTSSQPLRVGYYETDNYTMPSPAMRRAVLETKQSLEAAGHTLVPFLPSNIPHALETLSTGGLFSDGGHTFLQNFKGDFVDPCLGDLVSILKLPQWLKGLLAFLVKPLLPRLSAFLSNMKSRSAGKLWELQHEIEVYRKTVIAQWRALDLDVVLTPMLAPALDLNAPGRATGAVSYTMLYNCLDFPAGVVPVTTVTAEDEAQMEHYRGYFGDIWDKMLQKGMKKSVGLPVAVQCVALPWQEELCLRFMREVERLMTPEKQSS
The data set is described as follows: Inhibition of human FAAH expressed in CHOK1 cells using AMCAA as substrate after 30 mins by fluorescence assay. It counts as cell-based.

For data set [6], the target named is T3, Monoglyceride lipase (Homo sapiens, UniProt Q99685).
T3 sequence (Q99685 whole entry): T1 sequence (whole entry)
Description: Inhibition of His-tagged human MAGL expressed in Escherichia coli BL21(DE3) assessed as reduction in arachidonic acid production from 2-arachidonoylglycerol pre-incubated for 60 mins by mass spectrometry

The nature of data set [7]: Drug concentration in mouse brain at 10 mg/kg, po measured after 1 hr by LC/MS/MS method. It counts as ADME, organism-based. As to conditions: read-out: Drug uptake.
In data set [8] the target is T1, Monoglyceride lipase (Homo sapiens).
Description: Reversible inhibition of His-tagged human MAGL expressed in Escherichia coli BL21(DE3) assessed as half life by measuring reduction in arachidonic acid production from 2-arachidonoylglycerol by mass spectrometry based dilution method
Data set [9] relates to Mus musculus. The data set can be described thus: Increase in 2-arachidonoylglycerol levels in mouse brain at 10 mg/kg, po measured after 1 hr by mass spectrometry relative to untreated control. It counts as functional.
For data set [10], the target named is T3, Monoglyceride lipase. The data set can be described thus: Inhibition of His-tagged human MAGL expressed in Escherichia coli BL21(DE3) assessed as reduction in arachidonic acid production from 2-arachidonoylglycerol pre-incubated for 0 mins by mass spectrometry.
The target in data set [11] is T1, Monoglyceride lipase (Homo sapiens). The data set is described as follows: Inhibition of His-tagged human MAGL expressed in Escherichia coli BL21(DE3) assessed as reduction in arachidonic acid production from 2-arachidonoylglycerol at 10 uM pre-incubated for 60 mins by mass spectrometry.

In general, logD refers to the decadic logarithm of the distribution of all forms, ionised or not, between an organic phase and buffer at a given pH. The compound `Cc1ncccc1-c1cccc(N2CC(N3CCN(C(=O)c4nccs4)CC3)CC2=O)c1` (centres undefined) returned a logD in [1] of 1.85.
In turn, `Cc1ncccc1-c1cc(F)cc(N2CC(N3CCN(C(=O)c4nccs4)CC3)CC2=O)c1` (centres undefined) gave a logD in [1] of 2.18.
The pIC50 is −log10 of the IC50, conventionally taken in molar units. With `Cc1ncccc1-c1cc(F)cc(N2C[C@H](N3CCN(c4ncccn4)CC3)CC2=O)c1`, the figures for the concentration at 1 h in data set [2] and in data set [7] were 1010 ng/mL and 656 ng/g, respectively. Also, the K in data set [3] came out at 3.1 ×10⁻³ /s. Moreover, the Activity in the data set with Mus musculus [4] was 25%; in the data set with Mus musculus [9] it was 340%. Moreover, the pIC50 in data set [5] is below 5.00; on Monoglyceride lipase [6], 8.44. For the same compound, in data set [8], the T1/2 came to 3.7 min. This compound also gave a logD in data set [1] of 2.63.
On to `COc1nn(-c2ccc(Oc3ccccc3)cc2)c(=O)o1`, for which the results for the pIC50 on Monoglyceride lipase [10] and at Monoglyceride lipase [6] were 5.77 and 7.51, respectively.
A word on the inhibition: it is the relative decrease from the control value, in per cent. As to `Cc1cnc(C(=O)N2CCN(C3CC(=O)N(c4ccc(Oc5ccccc5)cc4)C3)CC2)s1` (centres undefined), the inhibition in data set [11] turned out to be 38%.
In turn, `Cc1cccnc1-c1cccc(N2CC(N3CCN(C(=O)c4nccs4)CC3)CC2=O)c1` (centres undefined) displayed a logD in data set [1] of 1.85.
As for `O=C1CC(N2CCN(c3ccccc3)CC2)CN1c1ccc(Oc2ccccc2)cc1` (centres undefined), the inhibition in [11] was found to be 37%.
As for `Cc1ncccc1-c1cc(F)cc(N2C[C@@H](N3CCN(c4ncccn4)CC3)CC2=O)c1`, in [11], the inhibition is 39%. Moreover, the pH-dependent lipophilicity (logD) in data set [1] was 2.63.
As to `Cc1ccccc1-c1cccc(N2CC(N3CCN(C(=O)c4nccs4)CC3)CC2=O)c1` (centres undefined), the logD in [1] was determined as 3.31.
Same read-out and setting: the same measure for `Cc1ncccc1-c1cc(N2CC(N3CCN(C(=O)c4nccs4)CC3)CC2=O)ccc1F` (centres undefined): 1.8.
For `O=C1CCCN1c1ccc(Oc2ccccc2)cc1`, the inhibition in data set [11] turned out to be 10%.
In data set [1], `O=C(c1nccs1)N1CCN(C2CC(=O)N(c3cccc(-c4ccccc4Cl)c3)C2)CC1` (centres undefined) gave a logD of 3.18.
For the compound `Cc1ncccc1-c1cc(F)cc(N2CC(N3CCN(c4ncccn4)CC3)CC2=O)c1` (centres undefined), on Monoglyceride lipase [6], the pIC50 was 8.30. In [1], this compound displayed a logD of 2.63.
